ChEMBL document CHEMBL5625252, “Synthesis of peptidomimetics as antibiotic adjuvants for combination with aztreonam to combat MDR Pseudomonas aeruginosa” (Eur J Med Chem, 2023)
≈ marks a conversion by molar mass, not a printed value.

Assays:
Assay type in all cases: functional
Pseudomonas aeruginosa [1] = experiment: Synergistic antibacterial activity against Pseudomonas aeruginosa PAO1 assessed as aztreonam MIC upto […] ug/ml incubated for 18 hrs by checkerboard method (reference value: 8 microg/ml)
Klebsiella pneumoniae [2] = experiment: Antibacterial activity against ESBLs (+) Klebsiella pneumoniae 16-14 assessed as inhibition of bacterial growth incubated for 18 hrs by agar dilution method
Klebsiella pneumoniae [3] = experiment: Antibacterial activity against ESBLs (+) Klebsiella pneumoniae ATCC 700603 assessed as inhibition of bacterial growth incubated for 18 hrs by agar dilution method
Klebsiella pneumoniae [4] = experiment: Antibacterial activity against NDM-1 (+) Klebsiella pneumoniae 2146 assessed as inhibition of bacterial growth incubated for 18 hrs by agar dilution method
Escherichia coli [5] = experiment: Antibacterial activity against NDM-1 (+) Escherichia coli CDC 1001728 assessed as inhibition of bacterial growth incubated for 18 hrs by agar dilution method
Klebsiella pneumoniae [6] = experiment: Antibacterial activity against NDM-1 (+) Klebsiella pneumoniae 09-20 assessed as inhibition of bacterial growth incubated for 18 hrs by agar dilution method
Pseudomonas aeruginosa [7] = experiment: Antibacterial activity against Pseudomonas aeruginosa PAO1 assessed as inhibition of bacterial growth incubated for 18 hrs by agar dilution method
Pseudomonas aeruginosa [8] = experiment: Antibacterial activity against BL (+) Pseudomonas aeruginosa ATCC 27853 assessed as inhibition of bacterial growth incubated for 18 hrs by agar dilution method
Escherichia coli [9] = experiment: Antibacterial activity against ESBLs (-) Escherichia coli ATCC 25922 assessed as inhibition of bacterial growth incubated for 18 hrs by agar dilution method
Escherichia coli [10] = experiment: Antibacterial activity against mcr-1 (+) Escherichia coli 08-85 assessed as inhibition of bacterial growth incubated for 18 hrs by agar dilution method
Escherichia coli [11] = experiment: Antibacterial activity against ESBLs (+) Escherichia coli 16-1 assessed as inhibition of bacterial growth incubated for 18 hrs by agar dilution method

Molecule | MIC (Pseudomonas aeruginosa [1]) | MIC (Klebsiella pneumoniae [2]) | MIC (Klebsiella pneumoniae [3]) | MIC (Klebsiella pneumoniae [4]) | MIC (Escherichia coli [5]) | MIC (Klebsiella pneumoniae [6]) | MIC (Pseudomonas aeruginosa [7]) | MIC (Pseudomonas aeruginosa [8]) | MIC (Escherichia coli [9]) | MIC (Escherichia coli [10]) | MIC (Escherichia coli [11])
COC(=O)[C@H](Cc1ccccc1)NC(=O)[C@H](CCCN)NC(=O)c1ccc2ccccc2c1 | 8 µg/mL |  |  |  |  |  |  |  |  |  | 
C[C@H]1[C@H](NC(=O)/C(=N\OCC(=O)N2CCCC(C(=O)O)C2)c2csc(N)n2)C(=O)N1S(=O)(=O)O (stereo partly drawn) |  | > 64 µg/mL | > 64 µg/mL | > 64 µg/mL | 16 µg/mL (≈ 30.9 µM) | 64 µg/mL (≈ 123 µM) | > 64 µg/mL | > 64 µg/mL | 0.5 µg/mL (≈ 0.964 µM) | > 64 µg/mL | 2 µg/mL (≈ 3.86 µM)
C[C@@H](O/N=C(\C(=O)N[C@@H]1C(=O)N(OS(=O)(=O)O)C1(C)C)c1csc(N)n1)C(=O)O |  | 0.5 µg/mL (≈ 1.11 µM) | 4 µg/mL (≈ 8.86 µM) | 8 µg/mL (≈ 17.7 µM) |  | 1 µg/mL (≈ 2.22 µM) | 64 µg/mL (≈ 142 µM) | 64 µg/mL (≈ 142 µM) | 1 µg/mL (≈ 2.22 µM) | 1 µg/mL (≈ 2.22 µM) | 0.5 µg/mL (≈ 1.11 µM)
COc1ccc(CCC(=O)N[C@@H](CCCN)C(=O)Nc2ccc3ccccc3c2)cc1 | 8 µg/mL |  |  |  |  |  |  |  |  |  | 
C[C@H]1[C@H](NC(=O)/C(=N\OCC(=O)N2CCC(C(=O)O)CC2)c2csc(N)n2)C(=O)N1S(=O)(=O)O |  | > 64 µg/mL | > 64 µg/mL | > 64 µg/mL | 16 µg/mL (≈ 30.9 µM) | > 64 µg/mL | > 64 µg/mL | > 64 µg/mL | 4 µg/mL (≈ 7.71 µM) | > 64 µg/mL | 16 µg/mL (≈ 30.9 µM)
C[C@H]1[C@H](NC(=O)/C(=N\OCC(=O)N2CCC(C(=O)O)C2)c2csc(N)n2)C(=O)N1S(=O)(=O)O (stereo partly drawn) |  | > 64 µg/mL | > 64 µg/mL | > 64 µg/mL | 16 µg/mL (≈ 31.7 µM) | 32 µg/mL (≈ 63.4 µM) | > 64 µg/mL | > 64 µg/mL | 1 µg/mL (≈ 1.98 µM) | > 64 µg/mL | 2 µg/mL (≈ 3.96 µM)
NCCC[C@H](NC(=O)CCc1ccc(Cl)cc1)C(=O)Nc1ccc2ccccc2c1 | 8 µg/mL |  |  |  |  |  |  |  |  |  | 
NCCC[C@H](NC(=O)CCc1ccc(C(F)(F)F)cc1)C(=O)Nc1ccc2ccccc2c1 | 8 µg/mL |  |  |  |  |  |  |  |  |  | 
NCCC[C@H](NC(=O)CCc1ccc([N+](=O)[O-])cc1)C(=O)Nc1ccc2ccccc2c1 | 8 µg/mL |  |  |  |  |  |  |  |  |  | 
NCCC[C@H](NCc1ccc2ccccc2c1)C(=O)N[C@@H](CCc1ccccc1)C(=O)O | 8 µg/mL |  |  |  |  |  |  |  |  |  | 
NCCC[C@H](NC(=O)c1ccc2ccccc2c1)C(=O)N[C@@H](CCc1ccccc1)C(=O)O | 8 µg/mL |  |  |  |  |  |  |  |  |  | 
NCCC[C@H](NC(=O)CCc1ccccc1)C(=O)Nc1ccc2ccccc2c1 | 2 µg/mL |  |  |  |  |  |  |  |  |  | 
C=CCO/N=C(\C(=O)N[C@@H]1C(=O)N(S(=O)(=O)O)[C@H]1C)c1nsc(N)n1 |  | > 64 µg/mL | > 64 µg/mL | > 64 µg/mL | 64 µg/mL (≈ 164 µM) | > 64 µg/mL | 64 µg/mL (≈ 164 µM) | > 64 µg/mL | 8 µg/mL (≈ 20.5 µM) | > 64 µg/mL | 16 µg/mL (≈ 41 µM)
CC(C)[C@H](O/N=C(\C(=O)N[C@@H]1C(=O)N(OS(=O)(=O)O)C1(C)C)c1csc(N)n1)C(=O)O |  | 0.125 µg/mL (≈ 0.261 µM) | 2 µg/mL (≈ 4.17 µM) | 1 µg/mL (≈ 2.09 µM) | 0.5 µg/mL (≈ 1.04 µM) | 0.25 µg/mL (≈ 0.521 µM) | 4 µg/mL (≈ 8.34 µM) | 8 µg/mL (≈ 16.7 µM) | 0.25 µg/mL (≈ 0.521 µM) | 0.25 µg/mL (≈ 0.521 µM) | 0.125 µg/mL (≈ 0.261 µM)
C[C@H]1[C@H](NC(=O)/C(=N\OCC(=O)N2CCC[C@@H]2C(=O)O)c2nsc(N)n2)C(=O)N1S(=O)(=O)O |  | > 64 µg/mL | > 64 µg/mL | > 64 µg/mL | 8 µg/mL (≈ 15.8 µM) | 16 µg/mL (≈ 31.7 µM) | > 64 µg/mL | > 64 µg/mL | 1 µg/mL (≈ 1.98 µM) | > 64 µg/mL | 1 µg/mL (≈ 1.98 µM)
C[C@H]1[C@H](NC(=O)/C(=N\OCC(=O)N2CCC[C@@H]2C(=O)O)c2csc(N)n2)C(=O)N1S(=O)(=O)O |  | 16 µg/mL (≈ 31.7 µM) | > 64 µg/mL | > 64 µg/mL | 8 µg/mL (≈ 15.9 µM) | 2 µg/mL (≈ 3.96 µM) | 32 µg/mL (≈ 63.4 µM) | > 64 µg/mL | 0.12 µg/mL (≈ 0.238 µM) | > 64 µg/mL | 0.12 µg/mL (≈ 0.238 µM)

Molecule | MIC (Pseudomonas aeruginosa [1]) | MIC (Klebsiella pneumoniae [2]) | MIC (Klebsiella pneumoniae [3]) | MIC (Klebsiella pneumoniae [4]) | MIC (Escherichia coli [5]) | MIC (Klebsiella pneumoniae [6]) | MIC (Pseudomonas aeruginosa [7]) | MIC (Pseudomonas aeruginosa [8]) | MIC (Escherichia coli [9]) | MIC (Escherichia coli [10]) | MIC (Escherichia coli [11])
NCCC[C@H](NC(=O)CCc1ccc(F)cc1)C(=O)Nc1ccc2ccccc2c1 | 8 µg/mL |  |  |  |  |  |  |  |  |  | 
NCCC[C@H](NC(=O)c1ccc2ccccc2c1)C(=O)N[C@@H](Cc1ccccc1)C(N)=O | 8 µg/mL |  |  |  |  |  |  |  |  |  | 
C#CCO/N=C(\C(=O)N[C@@H]1C(=O)N(S(=O)(=O)O)[C@H]1C)c1nsc(N)n1 |  | > 64 µg/mL | > 64 µg/mL | > 64 µg/mL | 32 µg/mL (≈ 82.4 µM) | > 64 µg/mL | 16 µg/mL (≈ 41.2 µM) | 64 µg/mL (≈ 165 µM) | 8 µg/mL (≈ 20.6 µM) | > 64 µg/mL | 16 µg/mL (≈ 41.2 µM)
NCCC[C@H](NC(=O)Cc1ccc2ccccc2c1)C(=O)N[C@@H](Cc1ccccc1)C(=O)O | 8 µg/mL |  |  |  |  |  |  |  |  |  | 
NCCC[C@H](NC(=O)CCCc1ccccc1)C(=O)Nc1ccc2ccccc2c1 | 8 µg/mL |  |  |  |  |  |  |  |  |  | 
POLYMYXIN B |  | 1 µg/mL | 2 µg/mL | 1 µg/mL | 1 µg/mL | 16 µg/mL | 8 µg/mL | 4 µg/mL | 1 µg/mL | 8 µg/mL | 0.25 µg/mL
C[C@H]1[C@H](NC(=O)/C(=N\OCC(=O)N2C3CCCC3C[C@@H]2C(=O)O)c2csc(N)n2)C(=O)N1S(=O)(=O)O (stereo partly drawn) |  | 64 µg/mL (≈ 118 µM) | > 64 µg/mL | > 64 µg/mL | 16 µg/mL (≈ 29.4 µM) | 8 µg/mL (≈ 14.7 µM) | > 64 µg/mL | > 64 µg/mL | 1 µg/mL (≈ 1.84 µM) | > 64 µg/mL | 1 µg/mL (≈ 1.84 µM)
CCOC(=O)[C@H](CCc1ccccc1)NC(=O)[C@H](CCCN)NC(=O)c1ccc2ccccc2c1 | 8 µg/mL |  |  |  |  |  |  |  |  |  | 
C[C@H](O/N=C(\C(=O)N[C@@H]1C(=O)N(OS(=O)(=O)O)C1(C)C)c1csc(N)n1)C(=O)O |  | 0.25 µg/mL (≈ 0.554 µM) | 8 µg/mL (≈ 17.7 µM) | 4 µg/mL (≈ 8.86 µM) |  | 0.5 µg/mL (≈ 1.11 µM) | 16 µg/mL (≈ 35.4 µM) | 16 µg/mL (≈ 35.4 µM) | 0.25 µg/mL (≈ 0.554 µM) | 0.25 µg/mL (≈ 0.554 µM) | 0.125 µg/mL (≈ 0.277 µM)
C[C@H]1[C@H](NC(=O)/C(=N\OCCN)c2nsc(N)n2)C(=O)N1S(=O)(=O)O |  | > 64 µg/mL | 32 µg/mL (≈ 81.3 µM) | 32 µg/mL (≈ 81.3 µM) | 16 µg/mL (≈ 40.7 µM) | 64 µg/mL (≈ 163 µM) | > 64 µg/mL | > 64 µg/mL | 32 µg/mL (≈ 81.3 µM) | > 64 µg/mL | 16 µg/mL (≈ 40.7 µM)
CC(C)[C@@H](O/N=C(\C(=O)N[C@@H]1C(=O)N(OS(=O)(=O)O)C1(C)C)c1csc(N)n1)C(=O)O |  | 16 µg/mL (≈ 33.4 µM) | 64 µg/mL (≈ 133 µM) | > 64 µg/mL | 32 µg/mL (≈ 66.7 µM) | 16 µg/mL (≈ 33.4 µM) | > 64 µg/mL | > 64 µg/mL | 16 µg/mL (≈ 33.4 µM) | 32 µg/mL (≈ 66.7 µM) | 8 µg/mL (≈ 16.7 µM)
C[C@H]1[C@H](NC(=O)/C(=N\OC(C)(C)C(=O)N2CCC[C@@H]2C(=O)O)c2csc(N)n2)C(=O)N1S(=O)(=O)O |  | > 64 µg/mL | > 64 µg/mL | > 64 µg/mL | 64 µg/mL (≈ 120 µM) | 16 µg/mL (≈ 30 µM) | 8 µg/mL (≈ 15 µM) | 32 µg/mL (≈ 60.1 µM) | 2 µg/mL (≈ 3.76 µM) | > 64 µg/mL | 1 µg/mL (≈ 1.88 µM)
C[C@H]1COc2c(N3CCN(C)CC3)c(F)cc3c(=O)c(C(=O)O)cn1c23 [LEVOFLOXACIN ANHYDROUS] |  |  |  | 128 µg/mL (≈ 354 µM) | 8 µg/mL (≈ 22.1 µM) | 16 µg/mL (≈ 44.3 µM) |  |  | ≤ 0.03 µg/mL | 16 µg/mL (≈ 44.3 µM) | 
NCCC[C@H](NC(=O)C[C@H](N)c1ccccc1)C(=O)Nc1ccc2ccccc2c1 | 8 µg/mL |  |  |  |  |  |  |  |  |  | 
NCCC[C@H](NC(=O)CCc1cc(F)cc(F)c1)C(=O)Nc1ccc2ccccc2c1 | 2 µg/mL |  |  |  |  |  |  |  |  |  | 
